From US8735584B2 (Merck Patent GmbH, priority 2008, dated 2014) come the findings set out here.

Structures are written as SMILES. Some results are limits rather than exact numbers.

The test has as its target T1, GST-Aurora A (Homo sapiens, UniProt O14965).
T1 construct: N-terminal GST fusion with full length Aurora A (1-403 amino acids); purchased Carna Biosciences 05-101
T1 sequence (O14965 1-403): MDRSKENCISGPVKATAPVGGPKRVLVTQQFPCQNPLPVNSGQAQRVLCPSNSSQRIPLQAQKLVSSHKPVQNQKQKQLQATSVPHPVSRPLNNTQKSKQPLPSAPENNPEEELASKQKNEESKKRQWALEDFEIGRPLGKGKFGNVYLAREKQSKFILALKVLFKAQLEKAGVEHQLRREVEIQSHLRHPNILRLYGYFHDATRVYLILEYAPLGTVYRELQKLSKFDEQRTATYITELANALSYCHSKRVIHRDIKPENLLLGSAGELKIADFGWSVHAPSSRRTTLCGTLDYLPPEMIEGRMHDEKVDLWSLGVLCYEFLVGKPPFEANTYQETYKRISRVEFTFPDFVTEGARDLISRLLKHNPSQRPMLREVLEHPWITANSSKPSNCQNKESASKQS
Nature of the test: Aurora A IC50, Caliper LC3000 mobility shift assay. The format is biochemical. Conditions: LC3000 method; 15 uM ATP (the KM value); read-out: Aurora Kinase A Activity (IC50). In short, it runs like this: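 Readout: percent conversion of FITC-LRRASLG (1 uM) to phosphopeptide, resolved electrophoretically on a Caliper LC3000, fitted against inhibitor concentration for IC50. Reaction: N-terminal GST full-length Aurora A, ATP at its KM (15 uM), pH 7.5 HEPES with MgCl2/DTT, 25 C for 90 min.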

Take `O=C(Nc1ccc(Nc2ccnc3[nH]c(=O)c4ccccc4c23)cc1)C1(C(F)(F)F)CC1` [Compound 501, N-(4-(6-Oxo-5,6-dihydrobenzo[c][1,8]naphthyridin-1-ylamino)phenyl)-1-(trifluoromethyl)cyclopropanecarboxamide]: the IC50 lay within 0.011 to 0.1 µM.

As for `O=C(Nc1ccc(Nc2ccnc3[nH]c(=O)c4ccccc4c23)cc1)C1(c2ccccc2)CC1` [Compound 502, N-(4-(6-Oxo-5,6-dihydrobenzo[c][1,8]naphthyridin-1-ylamino)phenyl)-1-phenylcyclopropanecarboxamide], the IC50 lay in the range of 0.011 to 0.1 µM.

As to `O=C(Cn1cccn1)Nc1ccc(Nc2ccnc3[nH]c(=O)c4ccccc4c23)cc1` [Compound 503, N-(4-(6-Oxo-5,6-dihydrobenzo[c][1,8]naphthyridin-1-ylamino)phenyl)-2-(1H-pyrazol-1-yl)acetamide], the IC50 is 0.011 to 0.1 µM.

As to `COc1cccc(F)c1C(=O)Nc1ccc(Nc2ccnc3[nH]c(=O)c4ccccc4c23)cc1` [Compound 504, 2-Fluoro-6-methoxy-N-(4-(6-oxo-5,6-dihydrobenzo[c][1,8]naphthyridin-1-ylamino)phenyl)benzamide], the half-inhibitory concentration (IC50) was below 0.011 µM.

In the case of `O=C(Nc1ccc(Nc2ccnc3[nH]c(=O)c4ccccc4c23)cc1)C(F)c1ccccc1` (stereo not shown) [Compound 505, 2-Fluoro-N-(4-(6-oxo-5,6-dihydrobenzo[c][1,8]naphthyridin-1-ylamino)phenyl)-2-phenylacetamide], the IC50 lay within 0.011 to 0.1 µM.

Turning to `O=C(Nc1ccc(Nc2ccnc3[nH]c(=O)c4ccccc4c23)cc1)c1ncccc1F` [Compound 506, 3-Fluoro-N-(4-(6-oxo-5,6-dihydrobenzo[c][1,8]naphthyridin-1-ylamino)phenyl)picolinamide], the IC50 lay in the range of 0.011 to 0.1 µM.

Regarding `O=c1[nH]c2ncccc2c2cc(Nc3ccccc3F)ccc12` [Example 32, 9-(2-Fluoro-phenylamino)-5H-benzo[c][1,8]naphthyridin-6-one], the IC50 was above 0.1 µM.

As for `COc1cccc(CNc2ccc3c(=O)[nH]c4ncccc4c3c2)c1` [Example 42, 9-(3-Methoxy-benzylamino)-5H-benzo[c][1,8]naphthyridin-6-one], the IC50 was above 0.1 µM.

In the case of `O=c1[nH]c2ncccc2c2cc(NCc3ccc(F)cc3)ccc12` [Example 43, 9-(4-Fluoro-benzylamino)-5H-benzo[c][1,8]naphthyridin-6-one], the IC50 was above 0.1 µM.

Turning to `O=c1[nH]c2ncccc2c2cc(NCc3ccccc3F)ccc12` [Example 44, 9-(2-Fluoro-benzylamino)-5H-benzo[c][1,8]naphthyridin-6-one], the IC50 fell in the range of 0.011 to 0.1 µM.

Regarding `O=c1[nH]c2ncccc2c2cc(NCc3cccc4ccccc34)ccc12` [Example 45, 9-[(Naphthalen-1-ylmethyl)-amino]-5H-benzo[c][1,8]naphthyridin-6-one], the IC50 is above 0.1 µM.

With `Cc1ccccc1CNc1ccc2c(=O)[nH]c3ncccc3c2c1` [Example 46, 9-(2-Methyl-benzylamino)-5H-benzo[c][1,8]naphthyridin-6-one], the IC50 was above 0.1 µM.

Turning to `Cc1cccc(CNc2ccc3c(=O)[nH]c4ncccc4c3c2)c1` [Example 47, 9-(3-Methyl-benzylamino)-5H-benzo[c][1,8]naphthyridin-6-one], the IC50 is above 0.1 µM.

Take `O=c1[nH]c2ncccc2c2cc(NCc3ccccc3C(F)(F)F)ccc12` [Example 48, 9-(2-Trifluoromethyl-benzylamino)-5H-benzo[c][1,8]naphthyridin-6-one]: the IC50 was 0.011 to 0.1 µM.

`Clc1nc2ncccc2c2cc(NCc3ccccc3)ccc12` [Example 53, Benzyl-(6-chloro-benzo[c][1,8]naphthyridin-9-yl)-amine]: the IC50 is above 0.1 µM.

As for `O=c1[nH]c2ncccc2c2cc(NCc3cccc(C(F)(F)F)c3)ccc12` [Example 69, 9-(3-Trifluoromethyl-benzylamino)-5H-benzo[c][1,8]naphthyridin-6-one], the IC50 fell in the range of 0.011 to 0.1 µM.

`O=c1[nH]c2ncccc2c2cc(NS(=O)(=O)c3ccc(Br)cc3)ccc12` [Example 72, 4-Bromo-N-(6-oxo-5,6-dihydro-benzo[c][1,8]naphthyridin-9-yl)-benzenesulfonamide]: the IC50 is above 0.1 µM.

Consider `O=c1[nH]c2ncccc2c2cc(NCc3cccnc3)ccc12` [Example 123, 9-[(Pyridin-3-ylmethyl)-amino]-5H-benzo[c][1,8]naphthyridin-6-one], for which the IC50 was above 0.1 µM.

Consider `COc1ccccc1C(=O)Nc1ccc(Nc2ccnc3[nH]c(=O)c4ccccc4c23)cc1` [Example 148, 2-Methoxy-N-[4-(6-oxo-5,6-dihydro-benzo[c][1,8]naphthyridin-1-ylamino)-phenyl]-benzamide], for which the IC50 is below 0.011 µM.

As to `Cn1ccnc1Sc1ccc(Nc2ccnc3[nH]c(=O)c4ccccc4c23)cc1Cl` [Example 156, 1-[3-Chloro-4-(1-methyl-1H-imidazol-2-ylsulfanyl)-phenylamino]-5H-benzo[c][1,8]naphthyridin-6-one], the concentration for half-maximal inhibition (IC50) was above 0.1 µM.

For the compound `COc1cccc(C#Cc2ccnc3[nH]c(=O)c4ccccc4c23)c1` [Example 160, 1-(3-Methoxy-phenylethynyl)-5H-benzo[c][1,8]naphthyridin-6-one], the IC50 was above 0.1 µM.

In the case of `O=c1[nH]c2nccc(Oc3ccc(NS(=O)(=O)c4cccc(Cl)c4Cl)cc3)c2c2ccccc12` [Example 173, 2,3-Dichloro-N-[4-(6-oxo-5,6-dihydro-benzo[c][1,8]naphthyridin-1-yloxy)-phenyl]-benzenesulfonamide], the IC50 was 0.011 to 0.1 µM.

With `O=C(Nc1ccc(Oc2ccnc3[nH]c(=O)c4ccccc4c23)cc1)c1cccn(-c2ccc(F)cc2)c1=O` [Example 181, 1-(4-Fluoro-phenyl)-2-oxo-1,2-dihydro-pyridine-3-carboxylic acid [4-(6-oxo-5,6-dihydro-benzo[c][1,8]naphthyridin-1-yloxy)-phenyl]-amide], the IC50 is above 0.1 µM.

For the compound `O=C(Nc1ccc(Oc2ccnc3[nH]c(=O)c4ccccc4c23)c(F)c1)c1cc(Cl)cnc1Cl` [Example 183, 2,5-Dichloro-N-[3-fluoro-4-(6-oxo-5,6-dihydro-benzo[c][1,8]naphthyridin-1-yloxy)-phenyl]-nicotinamide], the IC50 is above 0.1 µM.

As to `O=C(Nc1ccc(Oc2ccnc3[nH]c(=O)c4ccccc4c23)cc1F)c1cccn(-c2ccc(F)cc2)c1=O` [Example 187, 1-(4-Fluoro-phenyl)-2-oxo-1,2-dihydro-pyridine-3-carboxylic acid [2-fluoro-4-(6-oxo-5,6-dihydro-benzo[c][1,8]naphthyridin-1-yloxy)-phenyl]-amide], the IC50 was above 0.1 µM.

For the compound `O=c1[nH]c2nccc(Nc3c(Cl)ccc4c3OCO4)c2c2ccccc12` [Example 188, 1-(5-Chloro-benzo[1,3]dioxol-4-ylamino)-5H-benzo[c][1,8]naphthyridin-6-one], the IC50 is above 0.1 µM.

Turning to `COc1cc2c(=O)[nH]c3nccc(Nc4ccc(Cl)cc4)c3c2cc1OC` [Example 213, 1-(4-Chloro-phenylamino)-8,9-dimethoxy-5H-benzo[c][1,8]naphthyridin-6-one], the IC50 lay within 0.011 to 0.1 µM.

On to `COc1cc2c(=O)[nH]c3nccc(Nc4ccc(F)cc4)c3c2cc1OC` [Example 215, 1-(4-Fluoro-phenylamino)-8,9-dimethoxy-5H-benzo[c][1,8]naphthyridin-6-one], for which the IC50 is above 0.1 µM.

As for `COc1cc2c(=O)[nH]c3nccc(Nc4ccccc4F)c3c2cc1OC` [Example 216, 1-(2-Fluoro-phenylamino)-8,9-dimethoxy-5H-benzo[c][1,8]naphthyridin-6-one], the IC50 fell in the range of 0.011 to 0.1 µM.

Turning to `O=C(c1ccc(F)cc1C(F)(F)F)N1CCOc2cc(Oc3ccnc4[nH]c(=O)c5ccccc5c34)ccc21` [Example 219, 1-[4-(4-Fluoro-2-trifluoromethyl-benzoyl)-3,4-dihydro-2H-benzo[1,4]oxazin-7-yloxy]-5H-benzo[c][1,8]naphthyridin-6-one], the IC50 was above 0.1 µM.

On to `O=C(c1cccn(-c2ccc(F)cc2)c1=O)N1CCOc2cc(Oc3ccnc4[nH]c(=O)c5ccccc5c34)ccc21` [Example 228, 1-{4-[1-(4-Fluoro-phenyl)-2-oxo-1,2-dihydro-pyridine-3-carbonyl]-3,4-dihydro-2H-benzo[1,4]oxazin-7-yloxy}-5H-benzo[c][1,8]naphthyridin-6-one], for which the IC50 is above 0.1 µM.

One may read the IC50 as the concentration at which inhibition is half-maximal.
